Test results from US12303594B2, “Antimicrobial and anti-inflammatory compositions” (The Texas A&M University System, priority 2015, dated 2025).

Key:
[1] = test system: Escherichia coli strain EC J53+pmg101; test: In vitro bacterial growth study (OD600); format: cell-based; settings: 10 μg/mL or 1 μg/mL ibuprofen solution added 1:1 (v:v)
[2] = Solubilization in aqueous DMSO/phosphate buffer solution; format: physicochemical; settings: aqueous solution of 1% v/v DMSO in phosphate buffer, DMSO (1% v/v) and phosphate (PO4) buffer, read-out: concentration solubilized
[3] = test system: Pseudomonas aeruginosa (strain PA HP3); test: Minimum inhibitory concentration (MIC); format: cell-based; settings: alone
Procedure: (§1) The final concentrations of aztreonam, ceftazidime and vancomycin were 0.06, 0.13, 0.25, 0.5, 1, 2, 4, 8, 16, 32, 64, and 128 μg/ml. The plates were incubated overnight at 37° C. […] Each triplicate was performed at least twice.

[4] = test system: methicillin-resistant Staphylococcus aureus (strain MRSA 0646); test: Minimum inhibitory concentration (MIC); format: cell-based; settings: alone, read-out: MIC
Procedure: as §1

[5] = Particle size distribution by laser light diffraction; format: physicochemical
Procedure: The particle size distribution (PSD) D10, D50, and D90 values for each sample were defined as particle diameters at the 10th, 50th, and 90th percentile and the span value was calculated according to Equation 2: […]
PSD analysis by laser light diffraction: PSDs were determined using a Sympatec Helos equipped with a Cuvette module (System-Partikel-Technik GmbH, Clausthal-Zellerfeld, Germany). Data were analyzed using the Sympatec WINDOX software. For each measurement, per a previously optimized method, about 2 mg of powder was dispersed in 0.5 mL of 0.1% (w/v) sodium dodecyl sulfate in water and the sample was sonicated for 5 min. […] After the reference measurement, 50 μL aliquots of the sonicated suspension were added to the cell to achieve optical concentrations of between 10 to 20% and the total of six measurements were performed on each sample. Formulations immediately following air-jet milling (25IBU10.1, 25IBU10.2) and after 6 months (25IBU10.1**, 25IBU10.2**) stored at RT (IBU10.1), or at −80° C. (IBU10.2) were analyzed.
PSDs were determined using a Sympatec Helos equipped with a Cuvette module (System-Partikel-Technik GmbH, Clausthal-Zellerfeld, Germany). Data were analyzed using the Sympatec WINDOX software. For each measurement per a previously optimized method, about 2 mg of powder was dispersed in 0.5 mL of 0.1% (w/v) SLS in water and the sample was sonicated for 5 minutes. […] After the reference measurement, 50 μL aliquots of the sonicated suspension were added to the cell to achieve optical concentrations of between 10 to 20% and the total of six measurements were performed on each sample. Analyzed samples included: unprocessed IBU and IND as well as the milled samples from different sections of the jet mill including the tube after grinding chamber (bfC), the cyclone (C), the collection vessel adapter (D), the collection bag adapter (E), the collection vessel (G) and the collection bag (H) for each run. The span value was calculated according to Equation 2.
To estimate the overall D10, D50, and D90 values for the combined recovered fractions associated with each run, stacked bar charts were graphed and analyzed to determine the yield normalized cumulative PSDs. Each stacked bar corresponded to a particle size bin and its height corresponded to the volume density distributions' weighted averages by the yield for each segment of the jet mill. The D10, D50, and D90 values for the normalized cumulative PSDs were the particle sizes corresponding to the 10, 50, and 90% area of the stacked bar chart respectively.
Tween 20 and sodium lauryl sulfate (SLS) were purchased from Fisher Scientific (Fisher Scientific, Pittsburgh, PA, USA), and dH2O was used for preparing solutions. […] A reference measurement was done in 0.1% (v/v) Span 85 in light mineral oil. After a reference measurement, aliquots of […] of sonicated suspension were added to achieve optical concentrations from 10 to 20% for a total of six measurements.
Furthermore, D10, D50, and D90 values for each sample were defined as particle diameters at the 10th, 50th, and 90th percentile of the PSD. Span was calculated according to Equation 2. Normalized cumulative PSDs were composed of yield-normalized distributions, where they were depicted as stacked bar charts. D10, D50, and D90 values for normalized cumulative PSDs were calculated by approximating particle sizes associated with 10%, 50%, and 90% area of the stacked bar chart.

[6] = Brunauer-Emmett-Teller specific surface area; format: physicochemical
Procedure: Brunauer-Emmett-Teller: Surface area (SA) was evaluated via a single-point BET method using a Monosorb® surface area analyzer (Quantrachrome Instruments; FL, USA) following 24 hour outgassing with helium at room temperature (RT) before each measurement in triplicate on a known powder mass (m). SSA was calculated using Equation 3: […]
Brunauer-Emmett-Teller (BET) specific surface area (SSA) measurements were taken. Surface area (SA) was evaluated via a single-point BET method using a Monosorb® surface area analyzer (Quantrachrome Instruments; FL, USA) following 24 hour outgassing with helium at room temperature before each measurement in triplicates. Samples masses (m) were at least 50 mg for the jet-milled powders depending on availability and 500 mg for the unprocessed samples. SSA was calculated according to the following formula: […]

[7] = Helium pycnometry true density; format: physicochemical; settings: N = 3
Procedure: Helium pycnometry: True densities were measured using an MVP-D160-E multipycnometer (Quantrachrome Instruments; FL, USA) equipped with the micro cell and adapter. Measurements were conducted in triplicates. Before pressure measurements, the multipycnometer was purged with helium gas according to the manufacturer's recommendations.
True densities were measured using a MVP-D160-E multipycnometer (Quantrachrome Instruments; FL, USA). For density measurements, the micro cell and the micro cell adapter were used, and samples weighed at least 0.1 g for the jet-milled powders depending on availability and at least 0.6 g for the unprocessed powders.

[8] = Bulk and tapped density, compressibility index and Hausner ratio; format: physicochemical
Procedure: In this modified method, a 10 mL graduated cylinder fitted with a molded adapter substituted the 100 mL graduated cylinder in the tapped density tester. The compressibility index (CI) and Hausner ratio (HR) calculations were performed according to the following formulas: The tapped density (rT) calculations were performed using a tapped density tester (Agilent Technologies, Santa Clara, CA, USA) with a modified method from the USP for a small mass of powder. In this modified method, a 10 mL graduated cylinder fitted with a molded adapter substituted the 100 mL graduated cylinder for the calculations of the bulk density (rB) and the use in the tapped density tester. The compressibility index (CI) and the Hausner ratio (HR) calculations were performed according to the following formulas: […]

PA01 = test: Endpoint CFU counting; settings: 6 hours in MH, free ibuprofen
[9] = test system: Burkholderia multivorans, BM; test: In vitro bacterial growth study (OD600); settings: 10 μg/mL or 1 μg/mL ibuprofen solution added 1:1 (v:v)
[10] = collection bag fraction or stock, Table 8
[11] = fraction used for testing (IBU collection bag, IND cyclone) or unprocessed powder

SMILES: CC(C)Cc1ccc(C(C)C(=O)O)cc1 (stereo not drawn) [ibuprofen, 2(4-isobutylphenyl)propanoic acid]
- bacterial growth (OD600) [1]: slowed and/or delayed the growth
- solubility [2]: ≤ 5000 µg/mL
- MIC [3]: > 128 µg/mL
- MIC [4]: > 128 µg/mL
- D50 [5, 10]: 48.0 μm
- D90 [5, 10]: 106.7 μm
- Span [5, 10]: 1.8
- Span [5, 11]: 1.84
- median size (d50) [5, 11]: 48 μm
- surface area [6]: 0.357±0.005 m^2/g
- SSA ([6]; N = 3): 0.36 ± 0.01 m^2/g
- ρ (true density) [7]: 1.14 ± 0.00 g/mL
- bulk density [8]: 0.268 g/mL
- tap density [8]: 0.441 g/mL
- ρB (bulk density) [8]: 0.27 g/mL
- ρT (tapped density) [8]: 0.44 g/mL
- CFU (PA01): Significant reduction in CFU
- bacterial growth (OD600) [9]: slowed and/or delayed the growth
